# Measurements reported in the supplement of paper PMC10307832.
# Legend:
# Assay in all cases: relative viability (nuclei count vs DMSO), 5 days (fraction); higher = more cells survive
# [1] = compound: CCn1c(-c2nonc2N)nc2cnc(Oc3cccc(NC(=O)c4ccc(OCCN5CCOCC5)cc4)c3)cc21 + CC1(C)CCC(c2ccc(Cl)cc2)=C(CN2CCN(c3ccc(C(=O)NS(=O)(=O)c4ccc(N[C@H](CCN5CCOCC5)CSc5ccccc5)c(S(=O)(=O)C(F)(F)F)c4)cc3)CC2)C1 [Navitoclax] (partner 0.5 µM)
# How it was run: (§1)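 Lung cancer cell lines were seeded in 1536-well plates and dosed by pin tool the next day, with either a single drug or a fixed anchor-drug dose combined with five library-drug doses (not always all listed) spaced in √10 steps. Five days later, one step fixed the cells and stained their nuclei (final 0.05% Triton X-100, 1% formaldehyde, 1 ug/ml Hoechst), and nuclei were counted on 4× images. Relative viability is the nuclei count in treated wells divided by the count in vehicle wells, and each value is the median of duplicate plates.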
# [2] = compound: CCn1c(-c2nonc2N)nc2cnc(Oc3cccc(NC(=O)c4ccc(OCCN5CCOCC5)cc4)c3)cc21 + CC(=O)c1c(C)c2cnc(Nc3ccc(N4CCNCC4)cn3)nc2n(C2CCCC2)c1=O [Palbociclib] (partner 0.5 µM)
# How it was run: as §1
# [3] = compound: CCC1=CN=CN=C1N2CCN(CC2)CC3=NC4=C(N3)C=C(C=C4)C(F)(F)F + Cc1nc(Nc2ncc(C(=O)Nc3c(C)cccc3Cl)s2)cc(N2CCN(CCO)CC2)n1 [Dasatinib] (partner 0.075 µM)
# How it was run: as §1
# [4] = compound: CCn1c(-c2nonc2N)nc2cnc(Oc3cccc(NC(=O)c4ccc(OCCN5CCOCC5)cc4)c3)cc21 + Nc1nc2[nH]cc(CCc3ccc(C(=O)N[C@@H](CCC(=O)O)C(=O)O)cc3)c2c(=O)[nH]1 [Pemetrexed] (partner 0.2 µM)
# How it was run: as §1
Cell Line,relative viability ([1]; first compound 0.04 µM),relative viability ([1]; first compound 0.1265 µM),relative viability ([1]; first compound 0.4 µM),relative viability ([1]; first compound 1.265 µM),relative viability ([1]; first compound 4 µM),relative viability ([2]; first compound 0.04 µM),relative viability ([2]; first compound 0.1265 µM),relative viability ([2]; first compound 0.4 µM),relative viability ([2]; first compound 1.265 µM),relative viability ([2]; first compound 4 µM),relative viability ([3]; first compound 0.04 µM),relative viability ([3]; first compound 0.1265 µM),relative viability ([3]; first compound 0.4 µM),relative viability ([3]; first compound 1.265 µM),relative viability ([3]; first compound 4 µM),relative viability ([4]; first compound 0.04 µM),relative viability ([4]; first compound 0.1265 µM),relative viability ([4]; first compound 0.4 µM),relative viability ([4]; first compound 1.265 µM),relative viability ([4]; first compound 4 µM)
LU99A,0.98,0.82,0.841,0.849,0.741,0.502,0.399,0.392,0.405,0.392,0.718,0.511,0.458,0.602,0.7,0.227,0.167,0.168,0.163,0.158
LXF-289,1.05,1.05,1.09,0.991,1.06,0.67,0.654,0.6,0.585,0.548,0.161,0.21,0.242,0.191,0.209,0.972,0.974,0.918,0.856,0.795
NCI-H23,1.18,0.956,–,0.806,0.651,0.708,0.521,0.547,0.394,0.353,0.794,0.897,0.653,0.769,0.865,0.864,0.74,0.442,0.532,0.431
NCI-H322M,1.39,1.16,1.28,1.26,1.32,0.543,0.51,0.487,0.451,0.486,0.261,0.257,0.258,0.239,0.249,0.714,0.716,0.617,0.47,0.559
NCI-H441,0.745,0.653,0.481,0.323,0.508,0.26,0.234,0.157,0.226,0.25,0.761,0.545,0.581,0.668,0.605,0.261,0.26,0.251,0.243,0.252
NCI-H460,1.07,1.01,1.13,0.393,0.26,0.213,0.126,0.101,0.056,0.073,0.583,0.467,0.544,0.472,0.541,0.0568,0.0572,0.0592,0.0521,0.0564
NCI-H520,1.21,1.13,0.955,0.555,0.385,0.242,0.207,0.199,0.176,0.175,0.212,0.181,0.224,0.206,0.226,1.01,0.662,0.634,0.372,0.336
NCI-H647,1.06,0.828,0.89,0.517,0.595,0.494,0.297,0.317,0.235,0.297,0.166,0.174,0.186,0.223,0.201,0.21,0.16,0.143,0.122,0.137
NCI-H838,0.982,0.686,0.569,0.354,0.294,0.19,0.175,0.147,0.157,0.179,0.295,0.237,0.28,0.26,0.289,0.252,0.218,0.187,0.179,0.156
NCI-H1355,0.917,0.946,1.01,0.952,0.968,0.321,0.411,0.411,0.397,0.374,0.761,0.631,0.621,0.657,0.735,1.12,1.05,0.769,0.835,0.581
NCI-H1395,1.19,1.02,0.982,0.534,0.729,0.562,0.558,0.565,0.457,0.482,0.441,0.405,0.371,0.442,0.384,0.961,0.825,0.736,0.519,0.434
NCI-H1437,1.1,1.09,1.02,0.747,0.607,0.355,0.367,0.389,0.279,0.331,0.339,0.369,0.386,0.328,0.22,0.324,0.317,0.297,0.216,0.201
NCI-H1650,1.79,1.31,1.34,1.08,1.05,0.466,0.32,0.294,0.335,0.328,0.346,0.299,0.333,–,0.309,0.343,0.326,0.389,0.334,0.343
NCI-H1651,1.17,1.14,1.05,0.925,0.471,0.587,0.584,0.476,0.369,0.432,0.542,0.294,0.403,0.386,0.368,0.714,0.693,0.578,0.312,0.471
NCI-H1666,1.09,1.28,1.07,0.648,0.495,0.635,0.64,0.613,0.57,0.538,0.777,0.685,0.742,0.783,0.865,0.875,0.859,0.926,0.828,0.606
NCI-H1734,1.11,0.81,0.684,0.564,0.345,0.335,0.365,0.293,0.319,0.267,0.403,0.532,0.522,0.476,0.441,0.397,0.401,0.307,0.281,0.29

Cell Line,relative viability ([1]; first compound 0.04 µM),relative viability ([1]; first compound 0.1265 µM),relative viability ([1]; first compound 0.4 µM),relative viability ([1]; first compound 1.265 µM),relative viability ([1]; first compound 4 µM),relative viability ([2]; first compound 0.04 µM),relative viability ([2]; first compound 0.1265 µM),relative viability ([2]; first compound 0.4 µM),relative viability ([2]; first compound 1.265 µM),relative viability ([2]; first compound 4 µM),relative viability ([3]; first compound 0.04 µM),relative viability ([3]; first compound 0.1265 µM),relative viability ([3]; first compound 0.4 µM),relative viability ([3]; first compound 1.265 µM),relative viability ([3]; first compound 4 µM),relative viability ([4]; first compound 0.04 µM),relative viability ([4]; first compound 0.1265 µM),relative viability ([4]; first compound 0.4 µM),relative viability ([4]; first compound 1.265 µM),relative viability ([4]; first compound 4 µM)
NCI-H1755,1.06,1.01,0.944,0.992,0.996,0.457,0.46,0.397,0.454,0.424,0.427,0.396,0.416,0.375,0.381,0.46,0.41,0.439,0.364,0.355
NCI-H1792,0.732,0.58,–,0.348,0.518,0.694,0.583,–,0.542,0.582,1,0.754,0.515,0.685,0.602,0.972,0.724,0.228,0.274,0.449
NCI-H1793,0.315,0.38,0.305,0.191,0.238,0.263,0.304,0.3,0.283,0.251,0.392,0.382,0.32,–,0.307,0.542,0.754,0.69,0.512,0.502
NCI-H1915,0.829,0.797,0.764,0.575,0.762,0.522,0.524,0.516,0.386,0.376,0.276,0.318,0.283,0.298,0.319,0.497,0.494,0.448,0.183,0.174
NCI-H1944,1.03,1.03,–,1.02,0.97,0.269,0.377,0.342,0.329,0.38,0.228,0.217,0.211,0.208,0.22,0.654,0.632,0.577,0.367,0.301
NCI-H1975,0.827,0.818,0.763,0.372,0.286,0.476,0.446,0.273,0.23,0.474,0.402,0.435,0.385,0.325,0.293,0.29,0.269,0.23,0.188,0.178
NCI-H1993,0.795,0.941,–,0.902,0.787,0.479,0.659,0.642,0.695,0.626,0.608,0.553,0.545,0.521,0.581,0.649,0.616,0.526,0.579,0.526
NCI-H2009,1.09,0.971,0.999,0.561,0.384,0.175,0.196,0.141,0.112,0.19,0.269,0.309,0.298,0.249,0.275,0.916,0.817,0.757,0.607,0.492
NCI-H2023,1.18,0.963,1.04,0.773,0.688,0.415,0.392,0.337,0.215,0.202,0.641,0.546,0.529,0.488,0.582,0.231,0.155,0.214,0.163,0.153
NCI-H2085,1.39,1.08,1.02,0.937,1.01,0.514,0.44,0.402,0.359,0.39,0.233,0.245,0.303,0.218,0.251,0.888,0.591,0.601,0.591,0.664
NCI-H2087,–,0.789,0.962,0.785,0.598,0.362,0.218,0.336,0.2,0.228,0.729,0.809,0.529,0.508,0.598,0.777,0.653,0.642,0.603,0.596
NCI-H2126,0.87,0.822,0.825,0.917,0.84,0.362,0.338,0.355,0.361,0.325,0.589,0.593,0.535,0.516,0.485,0.8,0.715,0.51,0.765,0.642
NCI-H2170,0.392,0.602,0.539,0.626,0.633,0.434,0.405,0.378,0.408,0.407,0.547,0.631,0.487,0.505,0.475,0.263,0.263,0.272,0.223,0.244
NCI-H2228,0.759,0.841,1.07,0.927,0.833,0.852,0.8,0.652,0.683,0.644,0.515,0.44,0.409,0.416,0.712,0.328,0.289,0.302,0.285,0.333
NCI-H2347,0.967,0.811,0.858,0.365,0.502,0.432,0.455,0.385,0.376,0.381,0.257,0.4,0.281,0.351,0.339,0.438,0.424,0.399,0.33,0.371
NCI-H2405,1.16,0.361,0.367,0.183,0.144,0.572,0.361,0.304,0.234,0.222,0.158,0.189,0.207,–,0.216,1.01,0.395,0.315,0.247,0.284
